From ChEMBL document CHEMBL2202965 (Bioorg Med Chem Lett, 2012)
Active and inactive are the calls of the source. The calls are words filed in the database; no cut-off is given here. Non-standard residues stand in square brackets, D forms with d. Residues, ends and D or L forms follow the SMILES beside them. ξ: configuration not given here. *: point of attachment. NH(2-(1-naphthyl)ethyl) = c1ccc2c(CCN*)cccc2c1; Phe(4-CONH2) = NC(=O)c1ccc(C[C@H](N)C(=O)O)cc1; Phe(4-COOH) = N[C@@H](Cc1ccc(C(=O)O)cc1)C(=O)O; Tryptamide = c1ccc2c(CCN*)c[nH]c2c1; Tic = O=C(O)[C@@H]1Cc2ccccc2CN1; X3 = c1ccc(-c2ccc(CCN*)cc2)cc1; X2 = c1cc(C2CCCCC2)ccc1CCN*; ξTic = O=C(O)C1Cc2ccccc2CN1; X1 = c1ccc2cc(CCN*)ccc2c1; NHDecyl = CCCCCCCCCCN*; NHHex = CCCCCCN*

Experiments:
[1] = target: Kappa-type opioid receptor (Cavia porcellus, UniProt P41144); experiment: Displacement of [3H]U69,593 from kappa opioid receptor in guinea pig brain membrane after 2 hrs; assay type: cell membranes
[2] = target: Delta-type opioid receptor (Homo sapiens) (UniProt P41143); experiment: Partial agonist activity at human delta opioid receptor expressed in HEK293 cells by [35S]GTP binding assay; assay type: functional, cell-based
[3] = target: Delta-type opioid receptor (Homo sapiens) (UniProt P41143); experiment: Agonist activity at human delta opioid receptor expressed in HEK293 cells by [35S]GTP binding assay relative to DPDPE; assay type: functional, cell-based
Cavia porcellus [4] = organism: Cavia porcellus; experiment: (§1) Partial agonist activity at delta opioid receptor in guinea pig ileum; assay type: functional
[5] = target: Delta-type opioid receptor (Mus musculus) (UniProt P32300); experiment: Agonist activity at delta opioid receptor in mouse vas deferens relative to DPDPE; assay type: functional, tissue-based
Cavia porcellus [6] = organism: Cavia porcellus; experiment: Agonist activity at delta opioid receptor in guinea pig ileum at 10 uM; assay type: functional, tissue-based
[7] = target: Delta-type opioid receptor (Rattus norvegicus) (UniProt P33533); experiment: Displacement of [3H]DSLET from delta opioid receptor in rat brain membrane after 2 hrs relative to DPDPE; assay type: cell membranes
[8] = target: Delta-type opioid receptor (Homo sapiens) (UniProt P41143); experiment: Antagonist activity at human delta opioid receptor expressed in HEK293 cells by [35S]GTP binding assay; assay type: functional, cell-based
[9] = as §1; assay type: functional; conditions: Cavia porcellus
[10] = Agonist activity at delta opioid receptor in guinea pig ileum; conditions: Cavia porcellus

Kappa-type opioid receptor, sequence (P41144 whole entry): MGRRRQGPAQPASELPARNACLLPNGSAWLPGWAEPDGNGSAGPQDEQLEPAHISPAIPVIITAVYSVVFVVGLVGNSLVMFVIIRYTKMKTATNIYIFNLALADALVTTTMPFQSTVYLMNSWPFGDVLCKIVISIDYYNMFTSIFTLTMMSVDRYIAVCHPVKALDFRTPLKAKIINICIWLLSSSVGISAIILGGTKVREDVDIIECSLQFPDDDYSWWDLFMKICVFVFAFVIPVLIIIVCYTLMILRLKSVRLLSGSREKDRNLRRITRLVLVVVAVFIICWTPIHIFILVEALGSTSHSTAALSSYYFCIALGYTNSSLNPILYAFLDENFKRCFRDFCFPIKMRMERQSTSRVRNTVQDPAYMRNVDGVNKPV
Delta-type opioid receptor (Homo sapiens), sequence (P41143 whole entry): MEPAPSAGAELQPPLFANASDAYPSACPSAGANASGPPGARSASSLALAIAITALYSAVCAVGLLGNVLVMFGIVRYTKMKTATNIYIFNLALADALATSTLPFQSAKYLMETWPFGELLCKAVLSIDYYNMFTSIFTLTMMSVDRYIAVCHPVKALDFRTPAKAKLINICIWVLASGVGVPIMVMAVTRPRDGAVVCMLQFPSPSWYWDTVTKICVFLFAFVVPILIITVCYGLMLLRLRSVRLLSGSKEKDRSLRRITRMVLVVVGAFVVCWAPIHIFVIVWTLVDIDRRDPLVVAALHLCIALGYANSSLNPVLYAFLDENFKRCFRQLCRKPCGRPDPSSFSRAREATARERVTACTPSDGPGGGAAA
Delta-type opioid receptor (Rattus norvegicus), sequence (P33533 whole entry): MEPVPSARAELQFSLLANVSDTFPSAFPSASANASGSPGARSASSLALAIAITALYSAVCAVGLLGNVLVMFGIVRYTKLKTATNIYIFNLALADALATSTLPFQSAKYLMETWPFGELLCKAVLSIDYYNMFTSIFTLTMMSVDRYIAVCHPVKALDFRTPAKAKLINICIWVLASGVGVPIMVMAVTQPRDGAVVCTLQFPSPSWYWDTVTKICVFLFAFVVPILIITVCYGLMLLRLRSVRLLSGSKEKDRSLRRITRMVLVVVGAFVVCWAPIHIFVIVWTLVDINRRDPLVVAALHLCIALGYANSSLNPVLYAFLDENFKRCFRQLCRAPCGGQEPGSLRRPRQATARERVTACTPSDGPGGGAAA
Delta-type opioid receptor (Mus musculus), sequence (P32300 whole entry): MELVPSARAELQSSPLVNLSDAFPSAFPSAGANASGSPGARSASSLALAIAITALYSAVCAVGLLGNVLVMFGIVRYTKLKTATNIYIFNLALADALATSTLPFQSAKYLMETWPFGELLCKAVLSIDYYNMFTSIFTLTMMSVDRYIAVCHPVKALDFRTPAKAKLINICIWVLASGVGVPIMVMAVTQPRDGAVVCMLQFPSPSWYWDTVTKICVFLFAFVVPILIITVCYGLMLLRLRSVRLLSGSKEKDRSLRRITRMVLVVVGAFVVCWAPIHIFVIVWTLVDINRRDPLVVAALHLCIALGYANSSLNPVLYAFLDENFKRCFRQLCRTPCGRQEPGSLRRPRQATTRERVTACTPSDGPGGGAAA

N[C@@H](Cc1ccc(C(=O)NCCc2ccc(-c3ccccc3)cc2)cc1)C(=O)N1Cc2ccccc2CC1C(=O)N[C@@H](Cc1ccccc1)C(=O)N[C@@H](Cc1ccccc1)C(=O)O (some centres not stated) (H-[Phe(4-COOH)](X3)[ξTic]FF-OH)
Ki [1]: > 10 µM
ED50 [2]: 0.000413 µM
Ratio [3]: 0.678

N[C@@H](Cc1ccc(C(=O)NCCc2c[nH]c3ccccc23)cc1)C(=O)N1Cc2ccccc2C[C@H]1C(=O)N[C@@H](Cc1ccccc1)C(=O)N[C@@H](Cc1ccccc1)C(=O)O (H-[Phe(4-COOH)](Tryptamide)[Tic]FF-OH)
Ki [1]: > 10 µM
Activity (Cavia porcellus [4]): Active

N[C@@H](Cc1ccc(C(=O)NCCc2cccc3ccccc23)cc1)C(=O)N1Cc2ccccc2C[C@H]1C(=O)N[C@@H](Cc1ccccc1)C(=O)N[C@@H](Cc1ccccc1)C(=O)O (H-[Phe(4-COOH)](NH(2-(1-naphthyl)ethyl))[Tic]FF-OH)
fold change (FC) [5]: 2
Ki [1]: > 10 µM
Activity (Cavia porcellus [6]): inactive
fold change (FC) [7]: 5

NC(=O)c1ccc(C[C@H](N)C(=O)N2Cc3ccccc3C[C@H]2C(=O)N[C@@H](Cc2ccccc2)C(=O)N[C@@H](Cc2ccccc2)C(=O)O)cc1 (H-[Phe(4-CONH2)][Tic]FF-OH)
Ki [1]: > 10 µM
Activity [8]: Active

N[C@@H](Cc1ccc(C(=O)NCCc2ccc(C3CCCCC3)cc2)cc1)C(=O)N1Cc2ccccc2C[C@H]1C(=O)N[C@@H](Cc1ccccc1)C(=O)N[C@@H](Cc1ccccc1)C(=O)O (H-[Phe(4-COOH)](X2)[Tic]FF-OH) [listing 1 of 2 here]
Ki [1]: > 10 µM

N[C@@H](Cc1ccc(C(=O)NCCc2ccc3ccccc3c2)cc1)C(=O)N1Cc2ccccc2C[C@H]1C(=O)N[C@@H](Cc1ccccc1)C(=O)N[C@@H](Cc1ccccc1)C(=O)O (H-[Phe(4-COOH)](X1)[Tic]FF-OH)
fold change (FC) [5]: 2
Ki [1]: > 10 µM
Activity (Cavia porcellus [4]): Active
fold change (FC) [7]: 5

CCCCCCNC(=O)c1ccc(C[C@H](N)C(=O)N2Cc3ccccc3C[C@H]2C(=O)N[C@@H](Cc2ccccc2)C(=O)N[C@@H](Cc2ccccc2)C(=O)O)cc1 (H-[Phe(4-COOH)](NHHex)[Tic]FF-OH)
Ki [1]: > 10 µM

CCCCCCCCCCNC(=O)c1ccc(C[C@H](N)C(=O)N2Cc3ccccc3C[C@H]2C(=O)N[C@@H](Cc2ccccc2)C(=O)N[C@@H](Cc2ccccc2)C(=O)O)cc1 (H-[Phe(4-COOH)](NHDecyl)[Tic]FF-OH)
Ki [1]: > 10 µM

N[C@@H](Cc1ccc(C(=O)NCCc2ccc(C3CCCCC3)cc2)cc1)C(=O)N1Cc2ccccc2C[C@H]1C(=O)N[C@@H](Cc1ccccc1)C(=O)N[C@@H](Cc1ccccc1)C(=O)O (H-[Phe(4-COOH)](X2)[Tic]FF-OH) [listing 2 of 2 here]
IC35 [9]: 0.0234 µM

N[C@@H](Cc1ccc(O)cc1)C(=O)N1Cc2ccccc2C[C@H]1C(=O)N[C@@H](Cc1ccccc1)C(=O)N[C@@H](Cc1ccccc1)C(=O)O (H-Y[Tic]FF-OH)
Ki [1]: > 10 µM
IC50 [10]: > 10 µM
Activity [8]: Active
